Reference: PubChem BioAssay AID330 (DTP/NCI, 2004)
Values joined by “and” are separate entries in the source; they are usually repeats but may differ in a detail not shown here. Identical values can stand only once. Inconclusive results and toxic doses are left out. Rule for the calls: active = survival T/C of 150% or more; inactive = T/C below 125% in these data.

Test system: P388 leukemia ip, CD2F1 mice, survival T/C
Assay: NCI In Vivo Anticancer Drug Screen. Data for tumor model P388 Leukemia (intraperitoneal) in CD2F1 (CDF1) mice
Details: endpoint: median survival time, higher = longer survival
How it was run: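 Mice carrying the transplanted tumor received test compound or vehicle. Survival was recorded in each group, and the value is the treated-group measurement divided by that of the vehicle-treated control group.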

[1] = dose: 50.0 mg/kg/injection, schedule: Q01DX009 (ip), vehicle: saline with Tween-80
[2] = dose: 100.0 mg/kg/injection, schedule: Q01DX009 (ip), vehicle: saline with Tween-80
[3] = dose: 200.0 mg/kg/injection, schedule: Q01DX009 (ip), vehicle: saline with Tween-80
[4] = dose: 50.0 mg/kg/injection, schedule: Q01DX005 (ip), vehicle: Klucel (hydroxypropylcellulose) (HPC)
[5] = dose: 100.0 mg/kg/injection, schedule: Q01DX005 (ip), vehicle: Klucel (hydroxypropylcellulose) (HPC)
[6] = dose: 200.0 mg/kg/injection, schedule: Q01DX005 (ip), vehicle: Klucel (hydroxypropylcellulose) (HPC)
[7] = dose: 6.25 mg/kg/injection, schedule: Q01DX009 (ip), vehicle: saline with Tween-80
[8] = dose: 12.5 mg/kg/injection, schedule: Q01DX009 (ip), vehicle: saline with Tween-80
[9] = dose: 25.0 mg/kg/injection, schedule: Q01DX009 (ip), vehicle: saline with Tween-80
[10] = dose: 60.0 mg/kg/injection, schedule: Q01DX005 (ip), vehicle: saline with Tween-80
[11] = dose: 120.0 mg/kg/injection, schedule: Q01DX005 (ip), vehicle: saline with Tween-80
[12] = dose: 240.0 mg/kg/injection, schedule: Q01DX005 (ip), vehicle: saline with Tween-80
[13] = dose: 50.0 mg/kg/injection, schedule: Q01DX005 (ip), vehicle: saline with Tween-80
[14] = dose: 50.0 mg/kg/injection, schedule: Q01DX009 (ip), vehicle: Klucel (hydroxypropylcellulose) (HPC)
[15] = dose: 100.0 mg/kg/injection, schedule: Q01DX009 (ip), vehicle: Klucel (hydroxypropylcellulose) (HPC)
[16] = dose: 100.0 mg/kg/injection, schedule: Q01DX005 (ip), vehicle: saline with Tween-80

Measured: T/C

O=C1CSC(=S)N1/N=C/c1ccccc1
inactive: dose: 25.0 mg/kg/injection, schedule: Q04DX002 (ip), vehicle: saline 100 % of control | dose: 50.0 mg/kg/injection, schedule: Q04DX002 (ip), vehicle: saline 105 % of control | dose: 100.0 mg/kg/injection, schedule: Q04DX002 (ip), vehicle: saline 98 % of control

CC(C)(CO)CS
inactive: [1] 99 % of control | [2] 100 % of control | [3] 97 % of control

O=NN(c1ccccc1)c1ccc([N+](=O)[O-])cc1
inactive: [1] 90 % of control | [2] 90 % of control

COc1cc(CCC(C)=O)ccc1OC(=O)c1c(-c2c(F)cccc2Cl)noc1C
inactive: [4] 91 % of control | [5] 91 % of control | [6] 91 % of control

NC(=O)c1nc[nH]c1F
inactive: [7] 102 % of control | [8] 102 % of control | [9] 103 % of control | [1] 104 % of control

COc1cccc(C(=O)NC[n+]2ccccc2)c1
inactive: dose: 25.0 mg/kg/injection, schedule: Q04DX003 (ip), vehicle: saline 100 % of control | dose: 50.0 mg/kg/injection, schedule: Q04DX003 (ip), vehicle: saline 100 % of control | dose: 100.0 mg/kg/injection, schedule: Q04DX003 (ip), vehicle: saline 109 % of control

C[CH2][Sn]([CH2]C)[CH2]C.C[CH2][Sn]([CH2]C)[CH2]C
inactive: dose: 12.5 mg/kg/injection, schedule: Q01DX005 (ip), vehicle: Klucel (hydroxypropylcellulose) (HPC) 105 % of control and 97 % of control | dose: 25.0 mg/kg/injection, schedule: Q01DX005 (ip), vehicle: Klucel (hydroxypropylcellulose) (HPC) 101 % of control and 114 % of control | [4] 110 % of control and 97 % of control | [5] 113 % of control

COC(=O)C1CC2CCCCC2CC1OC(C)=O (centres undefined)
inactive: [9] 96 % of control | [1] 101 % of control and 111 % of control | [2] 106 % of control and 112 % of control and 121 % of control | [3] 99 % of control and 110 % of control and 121 % of control

Nc1nnc2nc(C(C(=O)c3ccccc3Cl)c3nc4nnc(N)n4[nH]c3=O)c(=O)[nH]n12
inactive: [10] 101 % of control | [11] 98 % of control | [12] 99 % of control

O=C(NC1(OC(=O)c2ccc(Cl)cc2)CC1)c1ccc(Cl)cc1
inactive: dose: 60.0 mg/kg/injection, schedule: Q01DX005 (ip), vehicle: Klucel (hydroxypropylcellulose) (HPC) 103 % of control | dose: 120.0 mg/kg/injection, schedule: Q01DX005 (ip), vehicle: Klucel (hydroxypropylcellulose) (HPC) 104 % of control | dose: 240.0 mg/kg/injection, schedule: Q01DX005 (ip), vehicle: Klucel (hydroxypropylcellulose) (HPC) 89 % of control

CCCOC(=O)/C=C(\Br)C(=O)OCCC
inactive: [7] 113 % of control | [8] 116 % of control and 117 % of control | [9] 103 % of control

CCCCOC(OCCCC)C(C)N (centres undefined)
inactive: dose: 12.5 mg/kg/injection, schedule: Q01DX005 (ip), vehicle: saline with Tween-80 108 % of control | dose: 25.0 mg/kg/injection, schedule: Q01DX005 (ip), vehicle: saline with Tween-80 106 % of control | [13] 103 % of control and 107 % of control

Cc1ccc(C(O)(CNC2CCCCC2)c2ccccc2)cc1 (centres undefined)
inactive: dose: 25.0 mg/kg/injection, schedule: Q01DX009 (ip), vehicle: saline sonified 104 % of control | dose: 50.0 mg/kg/injection, schedule: Q01DX009 (ip), vehicle: saline sonified 104 % of control

COc1c(O)cc2c(c1O)C1OC(CO)C(O)C(O)C1OC2=O (centres undefined)
inactive: dose: 12.75 mg/kg/injection, schedule: Q01DX005 (ip), vehicle: Klucel (hydroxypropylcellulose) (HPC) 100 % of control | dose: 25.5 mg/kg/injection, schedule: Q01DX005 (ip), vehicle: Klucel (hydroxypropylcellulose) (HPC) 98 % of control | dose: 51.0 mg/kg/injection, schedule: Q01DX005 (ip), vehicle: Klucel (hydroxypropylcellulose) (HPC) 97 % of control | dose: 102.0 mg/kg/injection, schedule: Q01DX005 (ip), vehicle: Klucel (hydroxypropylcellulose) (HPC) 100 % of control

CNC(=O)N(C)CN(C)C(=O)NC
inactive: [14] 100 % of control | [15] 106 % of control | dose: 200.0 mg/kg/injection, schedule: Q01DX009 (ip), vehicle: Klucel (hydroxypropylcellulose) (HPC) 107 % of control

C[N+](C)(C)c1ccc(Cc2ccc([N+](C)(C)C)cc2)cc1
inactive: dose: 6.3 micrograms/kg/injection, schedule: Q04DX002 (ip), vehicle: saline 107 % of control | dose: 12.5 micrograms/kg/injection, schedule: Q04DX002 (ip), vehicle: saline 111 % of control | dose: 25.0 micrograms/kg/injection, schedule: Q04DX002 (ip), vehicle: saline 103 % of control

CNc1ccc([N+](=O)[O-])cc1C(=O)OC
inactive: [8] 99 % of control | [9] 98 % of control | [1] 102 % of control

N=C1OC(C(Cl)(Cl)Cl)N(c2cccc(F)c2)C1=O (centres undefined)
inactive: dose: 60.0 mg/kg/injection, schedule: Q01DX005 (ip), vehicle: Klucel + Tween-80 100 % of control | dose: 120.0 mg/kg/injection, schedule: Q01DX005 (ip), vehicle: Klucel + Tween-80 100 % of control | dose: 240.0 mg/kg/injection, schedule: Q01DX005 (ip), vehicle: Klucel + Tween-80 89 % of control

Nc1nc2c(s1)CCC2
inactive: [1] 118 % of control | [2] 104 % of control | [3] 93 % of control

CN(C)c1ccc(C(=N)c2ccc(N(C)C)cc2)cc1 (tested in a mixture with another compound)
inactive: [9] 100 % of control | [1] 95 % of control | [2] 100 % of control

OC(c1ccccc1)C(C(c1ccccc1)N1CCCc2ccccc21)N1CCOCC1 (centres undefined)
inactive: [4] 99 % of control | [5] 93 % of control | [6] 90 % of control

Cc1cc2c(cc1C)NC1=C(N2)OC(c2ccc(Cl)cc2)C1=O (centres undefined)
inactive: [10] 92 % of control | [11] 89 % of control | [12] 92 % of control

COc1ccc2c(c1)OCCN(C)OC2c1ccccc1 (centres undefined)
inactive: [13] 96 % of control | [16] 95 % of control

O=C1CCC(=O)C1
inactive: dose: 60.0 mg/kg/injection, schedule: Q01DX005 (ip), vehicle: saline 100 % of control | dose: 120.0 mg/kg/injection, schedule: Q01DX005 (ip), vehicle: saline 93 % of control | dose: 240.0 mg/kg/injection, schedule: Q01DX005 (ip), vehicle: saline 105 % of control

O=C1NC(=O)C(C2CC2)(C2CC2)N1
inactive: [13] 103 % of control | [16] 101 % of control | dose: 200.0 mg/kg/injection, schedule: Q01DX005 (ip), vehicle: saline with Tween-80 101 % of control

Oc1c(C(Nc2cccc3cccnc23)c2ccccc2)ccc2cccnc12 (centres undefined)
inactive: dose: 25.0 mg/kg/injection, schedule: Q01DX009 (ip), vehicle: Klucel (hydroxypropylcellulose) (HPC) 110 % of control | [14] 106 % of control and 111 % of control | [15] 106 % of control and 107 % of control

Nc1ccccc1C(=O)On1nnc2ccccc2c1=O
inactive: dose: 100.0 mg/kg/injection, schedule: Q01DX001 (ip), vehicle: Klucel (hydroxypropylcellulose) (HPC) 103 % of control | dose: 200.0 mg/kg/injection, schedule: Q01DX001 (ip), vehicle: Klucel (hydroxypropylcellulose) (HPC) 103 % of control | dose: 400.0 mg/kg/injection, schedule: Q01DX001 (ip), vehicle: Klucel (hydroxypropylcellulose) (HPC) 100 % of control

CC1=N/C(=C\c2ccccc2Br)C(=O)O1
inactive: dose: 50.0 mg/kg/injection, schedule: Q01DX005 (ip), vehicle: saline 114 % of control | dose: 100.0 mg/kg/injection, schedule: Q01DX005 (ip), vehicle: saline 119 % of control | dose: 200.0 mg/kg/injection, schedule: Q01DX005 (ip), vehicle: saline 119 % of control

C[CH2][Pb]([CH2]C)([CH2]C)[O]C(=O)c1ccc2ccccc2n1
inactive: dose: 0.25 mg/kg/injection, schedule: Q01DX009 (ip), vehicle: saline with Tween-80 100 % of control | dose: 0.5 mg/kg/injection, schedule: Q01DX009 (ip), vehicle: saline with Tween-80 103 % of control | dose: 1.0 mg/kg/injection, schedule: Q01DX009 (ip), vehicle: saline with Tween-80 99 % of control | dose: 2.0 mg/kg/injection, schedule: Q01DX009 (ip), vehicle: saline with Tween-80 94 % of control | dose: 4.0 mg/kg/injection, schedule: Q01DX009 (ip), vehicle: saline with Tween-80 112 % of control | dose: 8.0 mg/kg/injection, schedule: Q01DX009 (ip), vehicle: saline with Tween-80 90 % of control

O=[N+]([O-])c1ccc(-c2nc3ccc(F)cc3[nH]2)o1
inactive: [10] 101 % of control | [11] 97 % of control | [12] 104 % of control
